Laboratory results published in patent US20110053836A1, “USE OF DEFENSINS AGAINST TUBERCULOSIS” (priority 2008, published 2011).
Like-named read-outs stand apart in the source and are kept apart here.

Legend:
Format in all cases: cell-based, Mycobacterium tuberculosis
[1] = test system: M. tuberculosis H37Rv; conditions: for Fold of reduction: RLU relative to buffer control; for MIC: concentration that reduces RLU by 90% (1 log), 96 hours
[2] = test system: M. tuberculosis
[3] = test system: H37Rv expressing LUX; conditions: 6.25 micrograms/ml; ~0.1 OD600 and ~1.0 OD600; 96 hours
[4] = test system: M. tuberculosis; remark: listed apart in the source
Procedure: The validation of the Relative Light Unit assay (RLU) was carried out by comparing it to conventional Colony Forming Unit (CFU) assay. In this assay, the cells were exposed to the different concentrations of the peptide for 96 hours and then plated onto 7H10 plates. The plates were incubated at 37° C. for 30 days and the colonies were enumerated.

[5] = peptide 25 micrograms/ml, buffer control 53503
[6] = peptide 6.25 micrograms/ml, buffer control 75380

| Substance | Fold of reduction ([1]; peptide 25 micrograms/ml) | RLU [1, 5] | MIC [1] | further results |
| --- | --- | --- | --- | --- |
| SEQ ID NO: 13: plectasin variant, substitutions N5G + M13L compared to SEQ ID NO: 2 (GFGCGGPWDEDDLQCHNHCKSIKGYKGGYCAKGGFVCKCY) | 20.8 | 2576 | – | – |
| SEQ ID NO: 5: plectasin variant, substitution Q14F compared to SEQ ID NO: 2 (GFGCNGPWDEDDMFCHNHCKSIKGYKGGYCAKGGFVCKCY) | 34.1 | 1567 | – | – |
| SEQ ID NO: 19: plectasin variant, substitutions D9S + Q14K + K26R compared to SEQ ID NO: 2 (GFGCNGPWSEDDMKCHNHCKSIKGYRGGYCAKGGFVCKCY) | – | – | ~6.25 micrograms/ml | Fold of reduction ([1]; peptide 6.25 micrograms/ml): 9.9; RLU [1, 6]: 7630 |
| SEQ ID NO: 6: plectasin variant, substitutions Q14R + K26R + K38R compared to SEQ ID NO: 2 (GFGCNGPWDEDDMRCHNHCKSIKGYRGGYCAKGGFVCRCY) | 11.9 | 4483 | – | – |
| SEQ ID NO: 8: plectasin variant, substitution Q14L compared to SEQ ID NO: 2 (GFGCNGPWDEDDMLCHNHCKSIKGYKGGYCAKGGFVCKCY) | 24.9 | 2145 | – | – |
| plectasin [SEQ ID NO: 2, reference compound] | 25.7 | 2070 | around 25 micrograms/ml | – |
| SEQ ID NO: 14: plectasin variant, substitutions N5G + D9S + M13L + N17Q + A31T compared to SEQ ID NO: 2 (GFGCGGPWSEDDLQCHQHCKSIKGYKGGYCTKGGFVCKCY) | 49.4 | 1083 | – | Inhibition of growth by OD600 ([2]; 6.25 micrograms/ml, T-25 flasks): completely inhibit the growth; MIC (=MBC) ([2]; confirmed by the assays of Examples 3 and 4 (CFU, OD600)): 6.25 micrograms/ml; Activity against early log and early stationary cells [3]: potent activity against organisms in both early log and early stationary phases of growth; MBC obtained by CFU ([4]; 96 hours exposure, plated on 7H10, 30 days): 6.25 micrograms/ml; Mode of action (bactericidal) ([4]; MIC by RLU equivalent to MBC by CFU): bactericidal |
| SEQ ID NO: 10: plectasin variant, substitutions M13K + K38R compared to SEQ ID NO: 2 (GFGCNGPWDEDDKQCHNHCKSIKGYKGGYCAKGGFVCRCY) | 46.4 | 1152 | – | – |
| SEQ ID NO: 7: plectasin variant, substitutions Q14R + K20R compared to SEQ ID NO: 2 (GFGCNGPWDEDDMRCHNHCRSIKGYKGGYCAKGGFVCKCY) | 40.0 | 1339 | 6.25 micrograms/ml | – |
| SEQ ID NO: 18: plectasin variant, substitutions D9S + Q14R + K26R compared to SEQ ID NO: 2 (GFGCNGPWSEDDMRCHNHCKSIKGYRGGYCAKGGFVCKCY) | – | – | ~6.25 micrograms/ml | Fold of reduction ([1]; peptide 6.25 micrograms/ml): 9.8; RLU [1, 6]: 7702 |
| SEQ ID NO: 15: plectasin variant, substitutions D9N + M13L + Q14R compared to SEQ ID NO: 2 (GFGCNGPWNEDDLRCHNHCKSIKGYKGGYCAKGGFVCKCY) | 12.9 | 4165 | – | – |
| SEQ ID NO: 12: plectasin variant, substitutions N5S + D9S + M13L + Q14R + N17V + A31S compared to SEQ ID NO: 2 (GFGCSGPWSEDDLRCHVHCKSIKGYKGGYCSKGGFVCKCY) | 13.7 | 3901 | – | – |
| SEQ ID NO: 20: plectasin variant, substitutions D9S + M13L + Q14K + V36L compared to SEQ ID NO: 2 (GFGCNGPWSEDDLKCHNHCKSIKGYKGGYCAKGGFLCKCY) | – | – | 6.25 micrograms/ml | Fold of reduction ([1]; peptide 6.25 micrograms/ml): 14.1; RLU [1, 6]: 5355 |
| SEQ ID NO: 17: plectasin variant, substitutions D9S + M13L + Q14R + K26R compared to SEQ ID NO: 2 (GFGCNGPWSEDDLRCHNHCKSIKGYRGGYCAKGGFVCKCY) | – | – | ~6.25 micrograms/ml | Fold of reduction ([1]; peptide 6.25 micrograms/ml): 9.1; RLU [1, 6]: 8321 |
| SEQ ID NO: 11: plectasin variant, substitutions Q14R + K26R compared to SEQ ID NO: 2 (GFGCNGPWDEDDMRCHNHCKSIKGYRGGYCAKGGFVCKCY) | 14.8 | 3604 | – | – |
| SEQ ID NO: 9: plectasin variant, substitutions N5R + M13V compared to SEQ ID NO: 2 (GFGCRGPWDEDDVQCHNHCKSIKGYKGGYCAKGGFVCKCY) | 31.8 | 1685 | 6.25 micrograms/ml | – |
| SEQ ID NO: 4: plectasin variant, substitution K26R compared to SEQ ID NO: 2 (GFGCNGPWDEDDMQCHNHCKSIKGYRGGYCAKGGFVCKCY) | 28.1 | 1903 | – | – |
| SEQ ID NO: 16: plectasin variant, substitutions D9G + Q14R + K23R compared to SEQ ID NO: 2 (GFGCNGPWGEDDMRCHNHCKSIRGYKGGYCAKGGFVCKCY) | 11.9 | 4495 | – | – |
| SEQ ID NO: 3: plectasin variant, substitutions Q14K + K26R compared to SEQ ID NO: 2 (GFGCNGPWDEDDMKCHNHCKSIKGYRGGYCAKGGFVCKCY) | 23.2 | 2310 | – | – |
